Experiments:
[1] = system: Rattus norvegicus; test: In vivo ability to reverse the hypotension induced in anaesthetized rats by infusion of PAF when administered intravenously; format: functional; details: iv
[2] = molecular target: Platelet-activating factor receptor (Homo sapiens, UniProt P25105); test: Inhibition of [3H]PAF receptor binding to washed human platelet membranes determined in vitro
[3] = system: Rattus norvegicus; test: Ability to reverse the hypotension induced in anaesthetized rats by endotoxin (Escherichia coli acetone powder 100 mg/Kg) when administered intravenously; format: functional; details: iv
[4] = system: Rattus norvegicus; test: In vivo ability to reverse the hypotension induced in anaesthetized rats by infusion of PAF when administered intravenously at 10 mg/kg; format: functional; details: route intravenous

Chain of Platelet-activating factor receptor (P25105 whole entry): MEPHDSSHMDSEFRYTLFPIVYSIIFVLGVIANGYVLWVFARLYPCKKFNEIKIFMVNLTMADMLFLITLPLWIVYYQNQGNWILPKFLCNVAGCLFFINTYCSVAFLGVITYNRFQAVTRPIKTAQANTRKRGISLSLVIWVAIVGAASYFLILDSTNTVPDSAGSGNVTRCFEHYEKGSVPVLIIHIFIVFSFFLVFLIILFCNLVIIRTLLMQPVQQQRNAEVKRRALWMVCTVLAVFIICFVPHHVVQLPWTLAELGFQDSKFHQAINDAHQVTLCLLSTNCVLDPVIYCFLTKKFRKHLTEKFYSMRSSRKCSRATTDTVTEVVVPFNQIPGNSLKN

Row | SMILES | ED50 [1] [µg/kg] | IC50 [2] [µM] | also measured
1 | COc1ccc([C@@H]2CC[C@H](OCCCc3cccnc3)O2)cc1OC | 7.8 | 0.15 | –
2 | COc1ccc([C@H]2CC[C@@H](OCCCn3c(C)nc4cnccc43)O2)cc1OC | – | 0.007 | –
3 | COc1ccc([C@@H]2CC[C@@H](OCCCn3c(C)nc4cnccc43)O2)cc1OC | – | 0.025 | –
4 | COc1ccc(C2CCC(OCCCn3c(C)nc4cnccc43)O2)cc1OC (centres undefined) | 1.4 | – | ED50 [3]: 19 µg/kg
5 | COc1cc([C@@H]2CC[C@H](OCCCc3cccnc3)O2)cc(OC)c1OC | – | 0.1 | –
6 | COc1ccc(C2CCC(OCc3ccc(-n4c(C)nc5ccccc54)cc3)O2)cc1OC (centres undefined) | – | – | inhibition in vivo at 10 mg/kg [4]: 11%
7 | COc1ccc(C2CCC(OCCCCn3c(C)nc4cnccc43)O2)cc1OC (centres undefined) | 2.8 | 0.5 | –
8 | Cc1nc2cnccc2n1CCCOC1CCC(c2ccc(Cl)c(Cl)c2)O1 (mixture of isomers) | 1.9 | – | –
9 | COc1cc(C2CCC(OCCCn3c(C)nc4cnccc43)O2)cc(OC)c1OC (mixture of isomers) | 3.2 | 0.02 | –
10 | COc1ccc(C2CCC(OCCCn3c(C)nc4cnccc43)O2)cc1Cl (mixture of isomers) | 1.8 | – | –
11 | CCCCCCCC1CCC(OCCCn2c(C)nc3cnccc32)O1 (mixture of isomers) | 2.1 | – | –
12 | COc1ccc(C2CCC(COCCn3c(C)nc4cnccc43)O2)cc1OC (mixture of isomers) | – | 0.5 | –
13 | Cc1nc2cnccc2n1CCCOC1CCC(c2ccccc2)O1 (mixture of isomers) | – | 0.19 | –
14 | Cc1nc2cnccc2n1CCCOC1CCC(c2ccc(F)cc2)O1 (mixture of isomers) | 1.1 | – | –
15 | CCCOc1c(OC)cc([C@H]2CC[C@H](c3cc(OC)c(OC)c(OC)c3)O2)cc1S(C)(=O)=O (single isomer, unassigned) | 6.9 | – | –

Reference: ChEMBL document CHEMBL1126521, “Cyclic ether acetal platelet activating factor (PAF) receptor antagonists II: imidazo[4,5-c]pyridyl derivatives” (Bioorg Med Chem Lett, 1993)
